Results taken from ChEMBL document CHEMBL4507308 (2021).
Activity calls are given as the source filed them. The calls are words filed in the database; no cut-off is given here.

Legend:
[1] = target: Alpha-2B adrenergic receptor (Homo sapiens) (UniProt P18089); conditions: Compound concentration 10.0 uM
[2] = target: Beta-3 adrenergic receptor (Homo sapiens) (UniProt P13945); conditions: Compound concentration 10.0 uM
[3] = target: Alpha-2C adrenergic receptor (Homo sapiens) (UniProt P18825); conditions: Compound concentration 10.0 uM
[4] = target: Alpha-1B adrenergic receptor (Homo sapiens) (UniProt P35368); conditions: Compound concentration 10.0 uM
Chain of Alpha-1B adrenergic receptor (Homo sapiens) (P35368 whole entry): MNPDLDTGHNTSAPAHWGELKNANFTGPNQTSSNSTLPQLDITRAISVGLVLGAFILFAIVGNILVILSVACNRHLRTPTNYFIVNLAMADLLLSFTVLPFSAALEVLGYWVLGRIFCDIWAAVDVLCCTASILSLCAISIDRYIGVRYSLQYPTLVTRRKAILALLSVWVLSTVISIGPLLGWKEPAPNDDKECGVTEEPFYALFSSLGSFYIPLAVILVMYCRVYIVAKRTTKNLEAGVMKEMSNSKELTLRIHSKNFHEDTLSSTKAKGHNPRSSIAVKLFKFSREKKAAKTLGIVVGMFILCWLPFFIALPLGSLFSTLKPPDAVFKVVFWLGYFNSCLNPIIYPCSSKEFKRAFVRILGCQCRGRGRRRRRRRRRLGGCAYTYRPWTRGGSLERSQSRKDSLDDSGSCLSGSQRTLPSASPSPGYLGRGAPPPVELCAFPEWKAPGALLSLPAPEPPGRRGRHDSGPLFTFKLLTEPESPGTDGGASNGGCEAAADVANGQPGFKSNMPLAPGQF

[5] = target: Muscarinic acetylcholine receptor M3 (Homo sapiens) (UniProt P20309); conditions: Compound concentration 10.0 uM
Chain of Muscarinic acetylcholine receptor M3 (Homo sapiens) (P20309 whole entry, looked up): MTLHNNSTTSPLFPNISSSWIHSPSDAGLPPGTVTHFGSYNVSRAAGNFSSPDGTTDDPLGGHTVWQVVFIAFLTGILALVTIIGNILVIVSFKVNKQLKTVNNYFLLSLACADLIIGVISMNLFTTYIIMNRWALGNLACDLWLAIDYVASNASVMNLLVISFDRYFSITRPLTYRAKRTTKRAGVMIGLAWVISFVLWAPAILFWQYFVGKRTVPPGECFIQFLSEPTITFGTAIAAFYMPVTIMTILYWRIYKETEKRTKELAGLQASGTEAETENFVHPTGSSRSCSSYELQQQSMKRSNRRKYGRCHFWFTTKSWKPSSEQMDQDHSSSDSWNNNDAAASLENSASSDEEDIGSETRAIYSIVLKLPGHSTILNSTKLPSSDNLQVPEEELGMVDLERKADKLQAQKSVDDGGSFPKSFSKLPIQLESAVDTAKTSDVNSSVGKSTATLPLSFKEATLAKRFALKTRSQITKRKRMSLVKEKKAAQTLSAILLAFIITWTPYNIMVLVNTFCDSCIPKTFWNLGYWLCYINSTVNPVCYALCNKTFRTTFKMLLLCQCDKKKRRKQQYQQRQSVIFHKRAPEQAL

[6] = target: Muscarinic acetylcholine receptor M2 (Homo sapiens) (UniProt P08172); conditions: Compound concentration 10.0 uM
[7] = target: Sodium-dependent serotonin transporter (Homo sapiens) (UniProt P31645); conditions: Compound concentration 10.0 uM
[8] = target: D(1A) dopamine receptor (Homo sapiens) (UniProt P21728); conditions: Compound concentration 10.0 uM
[9] = target: 5-hydroxytryptamine receptor 2A (Homo sapiens) (UniProt P28223); conditions: Compound concentration 10.0 uM
[10] = target: Alpha-1D adrenergic receptor (Homo sapiens) (UniProt P25100); conditions: Compound concentration 10.0 uM
[11] = target: D(1B) dopamine receptor (Homo sapiens) (UniProt P21918); conditions: Compound concentration 10.0 uM
[12] = target: Histamine H3 receptor (Homo sapiens) (UniProt Q9Y5N1); conditions: Compound concentration 10.0 uM
[13] = target: T1, 5-hydroxytryptamine receptor 2B (Homo sapiens, UniProt P41595); assay: GPCRScan assay: inhibition of 5-HT2B; design: radioligand conc. used [nm] 1.0 – 2.0, parental cells stable HEK
T1 sequence (P41595 whole entry): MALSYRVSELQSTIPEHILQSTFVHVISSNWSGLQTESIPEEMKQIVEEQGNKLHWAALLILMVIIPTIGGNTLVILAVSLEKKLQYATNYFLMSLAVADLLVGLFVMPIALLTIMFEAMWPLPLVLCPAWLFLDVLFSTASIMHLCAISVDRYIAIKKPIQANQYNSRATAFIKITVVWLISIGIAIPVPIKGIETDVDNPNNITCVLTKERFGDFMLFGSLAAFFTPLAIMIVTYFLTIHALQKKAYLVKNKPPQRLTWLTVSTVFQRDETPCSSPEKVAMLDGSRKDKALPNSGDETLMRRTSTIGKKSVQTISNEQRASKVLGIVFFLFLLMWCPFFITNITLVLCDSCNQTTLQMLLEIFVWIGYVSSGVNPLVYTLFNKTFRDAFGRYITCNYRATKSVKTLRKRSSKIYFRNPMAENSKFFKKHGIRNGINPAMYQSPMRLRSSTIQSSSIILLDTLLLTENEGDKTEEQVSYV

[14] = target: 5-hydroxytryptamine receptor 6 (Homo sapiens) (UniProt P50406); conditions: Compound concentration 10.0 uM
[15] = target: 5-hydroxytryptamine receptor 2C (Homo sapiens) (UniProt P28335); conditions: Compound concentration 10.0 uM
Chain of 5-hydroxytryptamine receptor 2C (Homo sapiens) (P28335 whole entry): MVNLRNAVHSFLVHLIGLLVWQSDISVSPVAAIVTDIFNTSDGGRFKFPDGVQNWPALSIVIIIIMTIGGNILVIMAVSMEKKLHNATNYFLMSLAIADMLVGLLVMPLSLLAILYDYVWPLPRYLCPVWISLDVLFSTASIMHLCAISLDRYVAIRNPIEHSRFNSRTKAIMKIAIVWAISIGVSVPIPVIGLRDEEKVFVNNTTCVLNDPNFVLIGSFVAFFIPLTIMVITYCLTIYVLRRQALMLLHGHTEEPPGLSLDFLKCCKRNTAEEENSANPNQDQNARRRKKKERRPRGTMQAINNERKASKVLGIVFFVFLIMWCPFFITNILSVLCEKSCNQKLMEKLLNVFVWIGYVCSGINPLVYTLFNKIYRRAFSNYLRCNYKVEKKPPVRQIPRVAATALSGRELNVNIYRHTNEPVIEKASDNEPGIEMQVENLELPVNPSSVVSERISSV

[16] = target: T2, Sodium-dependent dopamine transporter (Homo sapiens, UniProt Q01959); conditions: Compound concentration 10.0 uM
T2 sequence (Q01959 whole entry): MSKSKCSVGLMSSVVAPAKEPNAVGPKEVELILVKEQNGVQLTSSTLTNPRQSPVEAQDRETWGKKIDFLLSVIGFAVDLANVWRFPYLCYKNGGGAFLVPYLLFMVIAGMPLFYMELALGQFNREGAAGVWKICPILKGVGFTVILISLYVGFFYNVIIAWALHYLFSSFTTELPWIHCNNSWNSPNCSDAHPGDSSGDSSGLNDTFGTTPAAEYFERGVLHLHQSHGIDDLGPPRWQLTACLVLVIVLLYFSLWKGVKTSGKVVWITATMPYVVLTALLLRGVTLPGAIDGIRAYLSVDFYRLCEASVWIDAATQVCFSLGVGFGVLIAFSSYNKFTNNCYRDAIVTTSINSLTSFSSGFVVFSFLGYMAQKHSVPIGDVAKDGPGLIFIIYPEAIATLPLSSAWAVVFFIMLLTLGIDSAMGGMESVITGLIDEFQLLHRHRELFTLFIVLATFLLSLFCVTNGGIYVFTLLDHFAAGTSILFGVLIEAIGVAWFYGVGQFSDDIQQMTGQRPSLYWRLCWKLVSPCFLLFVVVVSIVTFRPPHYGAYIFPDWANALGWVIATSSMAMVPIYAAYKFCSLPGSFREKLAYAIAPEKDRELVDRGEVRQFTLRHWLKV

[17] = target: D(4) dopamine receptor (Homo sapiens) (UniProt P21917); conditions: Compound concentration 10.0 uM
TGF-beta receptor type-1 = TGF-beta receptor type-1 (Homo sapiens, UniProt P36897); assay: NanoBRET (SGC Frankfurt) (TGFBR1)
[18] = target: Sigma intracellular receptor 2 (Homo sapiens) (UniProt Q5BJF2); conditions: Compound concentration 10.0 uM
Chain of Sigma intracellular receptor 2 (Homo sapiens) (Q5BJF2 whole entry): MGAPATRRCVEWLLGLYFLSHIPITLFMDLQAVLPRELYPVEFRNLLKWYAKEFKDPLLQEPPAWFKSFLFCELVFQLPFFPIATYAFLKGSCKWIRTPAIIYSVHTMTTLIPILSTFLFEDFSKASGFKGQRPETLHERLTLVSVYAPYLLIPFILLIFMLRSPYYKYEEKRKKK

[19] = target: D(2) dopamine receptor (Homo sapiens) (UniProt P14416); conditions: Compound concentration 10.0 uM
[20] = target: 5-hydroxytryptamine receptor 7 (Homo sapiens) (UniProt P34969); conditions: Compound concentration 10.0 uM
Chain of 5-hydroxytryptamine receptor 7 (Homo sapiens) (P34969 whole entry): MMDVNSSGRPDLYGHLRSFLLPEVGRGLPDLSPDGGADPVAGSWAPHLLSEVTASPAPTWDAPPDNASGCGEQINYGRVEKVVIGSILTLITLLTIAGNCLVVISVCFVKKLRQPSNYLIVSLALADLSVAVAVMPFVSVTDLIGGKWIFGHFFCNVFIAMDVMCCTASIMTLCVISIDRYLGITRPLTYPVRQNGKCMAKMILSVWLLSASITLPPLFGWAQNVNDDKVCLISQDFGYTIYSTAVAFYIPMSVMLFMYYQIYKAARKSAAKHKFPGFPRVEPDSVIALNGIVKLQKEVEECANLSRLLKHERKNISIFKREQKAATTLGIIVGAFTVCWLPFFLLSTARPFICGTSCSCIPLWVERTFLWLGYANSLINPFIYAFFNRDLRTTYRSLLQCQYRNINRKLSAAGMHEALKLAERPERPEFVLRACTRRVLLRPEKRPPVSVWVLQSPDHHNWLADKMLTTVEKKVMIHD

[21] = target: T3, GABA-A receptor; anion channel (Rattus norvegicus) (UniProt O09028+P15431+P18506+P18508+P19969+P20236+P23574+P23576+P28471+P28473+P30191+P62813+P63079+P63138+Q91ZM7+Q9ES14); conditions: Compound concentration 10.0 uM
[22] = target: 5-hydroxytryptamine receptor 5A (Homo sapiens) (UniProt P47898); conditions: Compound concentration 10.0 uM
[23] = target: 5-hydroxytryptamine receptor 1A (Homo sapiens) (UniProt P08908); conditions: Compound concentration 10.0 uM
[24] = target: GABA-A receptor; anion channel; assay: GPCRScan assay: inhibition of GABAA/BZP; type: protein-complex assay, Rattus norvegicus; design: radioligand conc. used [nm] 0.6 – 4.0, parental cells brain tissue
[25] = target: 5-hydroxytryptamine receptor 1B (Homo sapiens) (UniProt P28222); conditions: Compound concentration 10.0 uM
Rattus norvegicus = species: Rattus norvegicus; conditions: Compound concentration 10.0 uM
[26] = target: Alpha-1A adrenergic receptor (Homo sapiens) (UniProt P35348); conditions: Compound concentration 10.0 uM
[27] = target: Alpha-2A adrenergic receptor (Homo sapiens) (UniProt P08913); conditions: Compound concentration 10.0 uM
[28] = target: Muscarinic acetylcholine receptor M5 (Homo sapiens) (UniProt P08912); conditions: Compound concentration 10.0 uM
[29] = target: T1, 5-hydroxytryptamine receptor 2B; conditions: Compound concentration 10.0 uM
[30] = target: Beta-2 adrenergic receptor (Homo sapiens) (UniProt P07550); conditions: Compound concentration 10.0 uM
Chain of Beta-2 adrenergic receptor (Homo sapiens) (P07550 whole entry, looked up): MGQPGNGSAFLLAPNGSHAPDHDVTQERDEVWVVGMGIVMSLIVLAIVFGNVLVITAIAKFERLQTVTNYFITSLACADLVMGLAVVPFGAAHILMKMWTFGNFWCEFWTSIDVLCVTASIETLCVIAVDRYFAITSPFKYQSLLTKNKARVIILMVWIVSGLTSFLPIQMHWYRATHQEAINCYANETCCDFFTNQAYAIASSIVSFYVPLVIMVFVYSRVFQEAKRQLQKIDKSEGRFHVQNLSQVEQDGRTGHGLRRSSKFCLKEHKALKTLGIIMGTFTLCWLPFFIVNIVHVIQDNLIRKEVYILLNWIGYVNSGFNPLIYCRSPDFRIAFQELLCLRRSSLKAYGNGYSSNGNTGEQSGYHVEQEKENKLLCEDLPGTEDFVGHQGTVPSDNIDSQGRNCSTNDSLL

[31] = target: Beta-1 adrenergic receptor (Homo sapiens) (UniProt P08588); conditions: Compound concentration 10.0 uM
[32] = target: 5-hydroxytryptamine receptor 3A (Homo sapiens) (UniProt P46098); conditions: Compound concentration 10.0 uM
Chain of 5-hydroxytryptamine receptor 3A (Homo sapiens) (P46098 whole entry): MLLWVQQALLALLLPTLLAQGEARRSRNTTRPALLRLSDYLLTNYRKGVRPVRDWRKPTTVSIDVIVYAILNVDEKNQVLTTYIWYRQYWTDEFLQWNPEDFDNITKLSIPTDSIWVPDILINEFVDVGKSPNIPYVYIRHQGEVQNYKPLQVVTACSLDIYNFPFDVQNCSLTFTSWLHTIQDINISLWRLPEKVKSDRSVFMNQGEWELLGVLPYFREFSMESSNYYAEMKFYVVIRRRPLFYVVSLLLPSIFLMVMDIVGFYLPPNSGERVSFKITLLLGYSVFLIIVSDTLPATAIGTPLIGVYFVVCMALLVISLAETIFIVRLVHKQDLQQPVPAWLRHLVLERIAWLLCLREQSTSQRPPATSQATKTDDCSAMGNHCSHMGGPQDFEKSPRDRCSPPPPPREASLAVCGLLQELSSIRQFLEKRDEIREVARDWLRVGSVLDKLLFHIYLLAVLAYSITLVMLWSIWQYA

[33] = target: Muscarinic acetylcholine receptor M4 (Homo sapiens) (UniProt P08173); conditions: Compound concentration 10.0 uM
Activin receptor type-1B [34] = target: T4, Activin receptor type-1B (Homo sapiens, UniProt P36896); assay: NanoBRET (SGC Frankfurt) (ACVR1B)
T4 sequence (P36896 whole entry): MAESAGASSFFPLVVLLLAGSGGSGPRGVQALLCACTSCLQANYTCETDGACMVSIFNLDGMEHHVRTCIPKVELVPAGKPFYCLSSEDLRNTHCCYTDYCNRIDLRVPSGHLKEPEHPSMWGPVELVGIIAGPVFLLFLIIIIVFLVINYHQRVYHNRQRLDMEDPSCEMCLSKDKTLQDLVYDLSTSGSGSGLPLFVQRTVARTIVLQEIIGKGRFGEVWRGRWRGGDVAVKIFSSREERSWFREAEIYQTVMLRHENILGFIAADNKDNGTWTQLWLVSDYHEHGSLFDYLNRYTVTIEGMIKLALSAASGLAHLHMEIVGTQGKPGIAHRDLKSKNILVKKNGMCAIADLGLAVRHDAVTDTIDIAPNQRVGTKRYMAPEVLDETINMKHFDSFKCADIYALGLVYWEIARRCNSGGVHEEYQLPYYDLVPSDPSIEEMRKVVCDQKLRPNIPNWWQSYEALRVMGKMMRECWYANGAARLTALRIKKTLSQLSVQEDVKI

[35] = target: Muscarinic acetylcholine receptor M1 (Homo sapiens) (UniProt P11229); conditions: Compound concentration 10.0 uM
Chain of Muscarinic acetylcholine receptor M1 (Homo sapiens) (P11229 whole entry): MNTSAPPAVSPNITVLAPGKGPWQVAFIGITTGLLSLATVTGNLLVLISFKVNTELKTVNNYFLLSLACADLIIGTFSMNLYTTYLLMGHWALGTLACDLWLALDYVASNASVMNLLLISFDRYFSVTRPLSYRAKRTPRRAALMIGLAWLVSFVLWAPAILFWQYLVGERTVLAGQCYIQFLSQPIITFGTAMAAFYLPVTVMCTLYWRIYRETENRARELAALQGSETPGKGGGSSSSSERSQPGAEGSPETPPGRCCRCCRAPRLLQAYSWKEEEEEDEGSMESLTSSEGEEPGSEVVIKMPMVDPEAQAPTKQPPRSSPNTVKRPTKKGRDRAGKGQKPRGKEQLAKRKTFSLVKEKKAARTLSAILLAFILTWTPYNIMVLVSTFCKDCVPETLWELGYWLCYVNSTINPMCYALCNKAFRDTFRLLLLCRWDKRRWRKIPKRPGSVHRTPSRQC

[36] = target: Histamine H1 receptor (Homo sapiens) (UniProt P35367); conditions: Compound concentration 10.0 uM
[37] = target: T3, GABA-A receptor; anion channel (Rattus norvegicus); conditions: Compound concentration 10.0 uM; remark: listed apart in the source
[38] = target: Epithelial discoidin domain-containing receptor 1 (Homo sapiens, UniProt Q08345); assay: NanoBRET (SGC Frankfurt) (DDR1)
[39] = target: 5-hydroxytryptamine receptor 1E (Homo sapiens) (UniProt P28566); conditions: Compound concentration 10.0 uM
[40] = target: Calcium/calmodulin-dependent protein kinase type 1B (Homo sapiens, UniProt Q6P2M8); assay: NanoBRET (SGC Frankfurt) (PNCK)
[41] = target: D(3) dopamine receptor (Homo sapiens) (UniProt P35462); conditions: Compound concentration 10.0 uM
[42] = target: Histamine H4 receptor (Homo sapiens) (UniProt Q9H3N8); conditions: Compound concentration 10.0 uM
[43] = target: Histamine H2 receptor (Homo sapiens) (UniProt P25021); conditions: Compound concentration 10.0 uM
Activin receptor type-1B [44] = target: T4, Activin receptor type-1B; assay: Reporter gene assay (ACVR1B)
[45] = target: 5-hydroxytryptamine receptor 1D (Homo sapiens) (UniProt P28221); conditions: Compound concentration 10.0 uM
Activin receptor type-1B [46] = target: T4, Activin receptor type-1B; assay: Radioactive kinase assay (ACVR1B)
Activin receptor type-1B [47] = target: T4, Activin receptor type-1B; assay: Lathascreen (Takeda) (ACVR1B)
[48] = target: Tyrosine-protein kinase JAK1 (Homo sapiens, UniProt P23458); assay: NanoBRET (SGC Frankfurt) (JAK1)
[49] = target: Phosphatidylinositol 4,5-bisphosphate 3-kinase catalytic subunit alpha isoform (Homo sapiens, UniProt P42336); assay: NanoBRET (SGC Frankfurt) (PIK3CA)
[50] = target: T2, Sodium-dependent dopamine transporter; assay: GPCRScan assay: inhibition of DAT; design: radioligand conc. used [nm] 3.6 – 16.0, parental cells stable HEK

Work on `Cc1cnc(-c2cc(Cl)ccc2F)cc1-n1c(=O)n(CC(N)=O)c2ccccc21` [Al11] yielded an inhibition [1] of 17.3%, an inhibition [2] of 9.94% and an inhibition [3] of 17.9%. For the same compound, the inhibition [4] was 5.45%, the inhibition [5] was -5.28% and the inhibition [6] was 14.4%. It also gave an inhibition [7] of 14.3%, an inhibition [8] of -2.08% and an inhibition [9] of 11.2%. It also gave an inhibition [10] of 2.71%, an inhibition [11] of 6.12% and an inhibition [12] of -8.16%. It also gave a Ki ([13]; read-out: Ki) of 1.59 µM, a Ki ([13]; read-out: pKi (converted)) of 1.57 µM and an inhibition [14] of 14.1%. The inhibition [15] was 10.2%, the inhibition [16] was -4.34% and the inhibition [17] was -1.38%. For the same compound, the IC50 (TGF-beta receptor type-1) was > 10 µM (not active), the inhibition [18] was 41.6% and the inhibition [19] was -1.99%. The inhibition [20] was 12.1%, the inhibition [21] was 50.2% and the inhibition [22] was -0.66%. The inhibition [23] was 12%, the Ki [24] was 2.75 µM and the inhibition [25] was -7.07%. For the same compound, the inhibition (Rattus norvegicus) was 27.1%, the inhibition [26] was 0.25% and the inhibition [27] was 3.1%. It also gave an inhibition [28] of 1.56%, an inhibition [29] of 72% and an inhibition [30] of 16.7%. The inhibition [31] was 25.8%, the inhibition [32] was 19.9% and the inhibition [33] was 3.09%. For the same compound, the IC50 (Activin receptor type-1B [34]) was > 10 µM (not active), the inhibition [35] was -1.17% and the inhibition [36] was -2.43%.

Work on `Cc1cnc(-c2cc(Cl)ccc2F)cc1-n1c(=O)n(CC(N)=O)c2cnccc21` [TP-008] yielded an inhibition [1] of 18.1%, an inhibition [2] of 3.94% and an inhibition [3] of -5.16%. For the same compound, the inhibition [4] was 3.76%, the inhibition [5] was -7.48% and the inhibition [37] was 27.3%. For the same compound, the inhibition [6] was 2.23%, the IC50 [38] was > 20 µM (not active) and the inhibition [39] was -5.81%. For the same compound, the inhibition [7] was 3.84%, the inhibition [8] was 12.9% and the inhibition [9] was -0.869%. The IC50 [40] was > 20 µM (not active), the inhibition [41] was 2.27% and the inhibition [12] was 30.5%. It also gave a Ki ([13]; read-out: Ki) of 1.88 µM, an inhibition [14] of -4.28% and an inhibition [15] of 15.5%. The inhibition [16] was 87.6%, the inhibition [17] was 5.41% and the inhibition [42] was 26.6%. It also gave an inhibition [18] of -2.75%, an inhibition [19] of -5.48% and an inhibition [20] of 3.98%. For the same compound, the inhibition [21] was 31.8%, the inhibition [22] was 16.8% and the inhibition [23] was 22.9%. For the same compound, the inhibition [25] was 19.5%, the inhibition [43] was 6.53% and the IC50 (Activin receptor type-1B [44]) was 0.526 µM (active). The inhibition [45] was 5.53%, the IC50 (Activin receptor type-1B [46]) was 0.126 µM (active) and the IC50 (Activin receptor type-1B [47]) was 1 µM (active). The IC50 [48] was > 20 µM (not active), the inhibition (Rattus norvegicus) was -8.98% and the inhibition [26] was -2.17%. For the same compound, the inhibition [27] was -0.767%, the inhibition [28] was -5.69% and the inhibition [29] was 70.5%. The inhibition [30] was 13.9%, the IC50 [49] was > 20 µM (not active) and the inhibition [32] was -6.36%. The inhibition [33] was -3.08%, the inhibition [35] was -3.81% and the Ki [50] was 10 µM. The pKi [50] was 5 and the inhibition [36] was 0.849%.
